Assay results published in patent publication US5889028A, “Colonic delivery of nicotine to treat inflammatory bowel disease” (priority 1997, dated 1999).
“Also recorded” adds a separate entry of the source.

Key:
[1] = systemic cotinine; cited from earlier work
[2] = Example 1: nicotine pharmacokinetics after IV, oral and rectal enema administration in healthy volunteers
Method: Intravenous nicotine was prepared using a nicotine base, supplied as the tartrate salt (Fisher Scientific/Eastman Kodak Company, Rochester, N.Y.). Solutions for injection were made up by combining 1.5 mg nicotine base (4.44 mg tartrate salt) in 100 ml of 0.9% sterile normal saline to form a 15 mcg/mL solution. The intravenous solution was filtered through a 0.22 micron filter into a sterile container and under sterile conditions. The solution was then cultured for organisms, assayed for endotoxin, and chemically analyzed prior to infusion to assure stable nicotine concentration. These samples were then be stored in sealed vials until the time of administration.
Thirty paid human volunteers were admitted to the pharmacokinetic study after giving informed consent to a protocol approved by the institutional review board at the Mayo Clinic, Rochester, Minn. The subjects ranged in age from 21-56 and their body weights ranged from 45 to 153 Kg. […]
Each subject underwent 2 investigations (IV and non-IV) of 8 hours duration at least 1 week apart. […] Plasma concentrations of nicotine were determined by gas chromatography/mass spectrometry as described by Baskin et al. (Clin. Chem., 31:76-80 (1991)).
For this study, the maximum plasma nicotine concentration (Cmax) and the time to reach Cmax (Tmax) were defined as the highest measured plasma concentrations and the time of the sample, respectively.

[3] = Example 1: side effects (questionnaire) versus plasma nicotine concentration; format: in vivo, human
Method: Intraindividual side effects occurred during each study, as determined by a questionnaire filled out every 30 minutes, closely correlated with plasma nicotine concentrations. However, the threshold above which symptoms appeared varied from individual to individual with the nicotine concentration at which side effects first appeared ranging from 2.4 ng/mL to 9.9 ng/mL (although some subjects had nicotine concentrations of >11 ng/mL without symptoms).

[4] = in vivo
[5] = gum and patch papers; cited from earlier work
[6] = Benowitz et al., cited from earlier work
[7] = nicotine base; cited from earlier work
clinical = details: in vivo
[8] = cited from earlier work

Question: For `CN1C(=O)CC[C@H]1c1cccnc1` [cotinine], which “activity relative to nicotine” value [1] is on record?
Answer: less active metabolite than nicotine

Question: With `CN1CCCC1c1cccnc1` (stereo not drawn) [nicotine] as the compound, how does the “bioavailability / tolerability in words” value [2] read?
Answer: low bioavailability and was well tolerated; also recorded: low or negligible bioavailability and was well tolerated

Question: And the “nicotine concentration without symptoms” value ([3]; some subjects)?
Answer: > 11 ng/mL

Question: What about the side effects observed ([3]; when side effects occurred, variable frequency) of the same compound?
Answer: nausea, lightheadedness, and diaphoresis

Question: And the “combination with 5-ASA, sulphasalazine, corticosteroids or budesonide” value [4]?
Answer: appears to show a synergistic effect

Question: And the “efficacy compared with high dosage transdermal patch” value [4]?
Answer: at least as efficacious as high dosage transdermal patch

Question: What about the “remission (clinical response)” value [4] of the same compound?
Answer: up to 70%

Question: And the “general side effects of nicotine administration” value [5]?
Answer: nausea, vomiting, headaches, insomnia, somnolence, diaphoresis, pre-syncope and tremor

Question: What about the “mean bioavailability for the oral dose” value [6] of the same compound?
Answer: 44 (9%)

Question: And the CLb ([6]; IV, heavy smokers)?
Answer: 66 (8 L/hr)

Question: And the T1/2 ([6]; IV, heavy smokers)?
Answer: 203 (61 min.)

Question: And the Vdss ([6]; IV, heavy smokers)?
Answer: 3.0 (0.7 L/Kg)

Question: And the “absorption through mucous membranes and skin” value [7]?
Answer: readily absorbed through mucous membranes and intact skin

Question: What about the Fa (clinical) of the same compound?
Answer: ~20%

Question: What about the effect on mucus ([8]; colonic mucus synthesis) of the same compound?
Answer: appears to increase mucus synthesis to levels observed in healthy subjects

Question: What about the “effect on rectal blood flow” value ([8]; patients with ulcerative colitis) of the same compound?
Answer: can reduce rectal blood flow to the normal range

Question: And the “effect on mucosal production of eicosanoids” value ([8]; prostaglandin E, 6-keto-PGF1a, leukotrienes)?
Answer: appears to reduce mucosal production of eicosanoids

Question: What about the mucus thickness ([8]; rabbits, high doses, versus controls) of the same compound?
Answer: greater mucus thickness as compared to controls
